Source: patent US20260232709A1, “COMPOSITION COMPRISING MELOSIDE FOR ALLEVIATING HAIR LOSS AND IMPROVING HAIR GROWTH” (MORECHEM CO., LTD., priority 2024, published 2026)
“Also recorded” adds a separate entry of the source.

Assays:
[1] = test system: dermal papilla cells (HDPC); experiment: Protection against DHT-induced death of dermal papilla cells (CCK-8); assay type: cell-based, human; settings: 30 or 100 ppm for 1 day, then DHT, FIG. 9
Procedure: Specifically, HDPC were treated with Meloside A or L at concentrations of 30 or 100 ppm, respectively, for 1 day, and then cell death was induced with Dihydrotestosterone (DHT), For comparison, HDPC that were neither treated with Meloside A or L nor with DHT were used as the negative control group. HDPC treated with DHT but without Meloside A and L were used as the untreated group. HDPC treated with 100 μM Minoxidil or 5 mM NAC (N-acetyl cysteine) followed by DHT treatment were used as the positive control group.
(§1) CCK-8 (Cell Counting Kit-8, Dojindo, EU) reagent was added to the HDPC according to the manufacturer's protocol, and absorbance was measured at a wavelength of 450 nm using a microplate reader (BioTeK, USA) to confirm the cell viability of dermal papilla cells because of Meloside treatment, compared to the negative control group (treated with DMEM instead of Meloside A or L).

DKK1 = DKK1 expression in DHT-treated HDPC supernatant (ELISA); assay type: cell-based, human; settings: HDPC treated with DHT, 30 or 100 ppm, 1 day, FIG. 7
Procedure: HDPC were treated with DHT to increase DKK1 expression, and then treated with Meloside A or L at concentrations of 30 or 100 ppm, respectively, for 1 day to obtain the cell supernatant. For comparison, HDPC treated with Dihydrotestosterone (DHT) but without Meloside A and L were used as the untreated group, and HDPC treated with 100 μM Minoxidil were used as the positive control group.
The increase or decrease in DKK1 expression level in the obtained cell supernatant was confirmed through an Enzyme-Linked Immunosorbent Assay (ELISA) method, and the results are shown in FIG. 7.

androgen receptor = target: T1, androgen receptor (Homo sapiens, UniProt P10275); experiment: Androgen receptor nuclear translocation in dermal papilla cells (EGFP-AR, fluorescence microscopy); assay type: cell-based; settings: DHT co-treated with 100 ppm, 24 hours, FIGS. 5 and 6
T1 construct: host or cells: dermal papilla cells
T1 sequence (P10275 1-920): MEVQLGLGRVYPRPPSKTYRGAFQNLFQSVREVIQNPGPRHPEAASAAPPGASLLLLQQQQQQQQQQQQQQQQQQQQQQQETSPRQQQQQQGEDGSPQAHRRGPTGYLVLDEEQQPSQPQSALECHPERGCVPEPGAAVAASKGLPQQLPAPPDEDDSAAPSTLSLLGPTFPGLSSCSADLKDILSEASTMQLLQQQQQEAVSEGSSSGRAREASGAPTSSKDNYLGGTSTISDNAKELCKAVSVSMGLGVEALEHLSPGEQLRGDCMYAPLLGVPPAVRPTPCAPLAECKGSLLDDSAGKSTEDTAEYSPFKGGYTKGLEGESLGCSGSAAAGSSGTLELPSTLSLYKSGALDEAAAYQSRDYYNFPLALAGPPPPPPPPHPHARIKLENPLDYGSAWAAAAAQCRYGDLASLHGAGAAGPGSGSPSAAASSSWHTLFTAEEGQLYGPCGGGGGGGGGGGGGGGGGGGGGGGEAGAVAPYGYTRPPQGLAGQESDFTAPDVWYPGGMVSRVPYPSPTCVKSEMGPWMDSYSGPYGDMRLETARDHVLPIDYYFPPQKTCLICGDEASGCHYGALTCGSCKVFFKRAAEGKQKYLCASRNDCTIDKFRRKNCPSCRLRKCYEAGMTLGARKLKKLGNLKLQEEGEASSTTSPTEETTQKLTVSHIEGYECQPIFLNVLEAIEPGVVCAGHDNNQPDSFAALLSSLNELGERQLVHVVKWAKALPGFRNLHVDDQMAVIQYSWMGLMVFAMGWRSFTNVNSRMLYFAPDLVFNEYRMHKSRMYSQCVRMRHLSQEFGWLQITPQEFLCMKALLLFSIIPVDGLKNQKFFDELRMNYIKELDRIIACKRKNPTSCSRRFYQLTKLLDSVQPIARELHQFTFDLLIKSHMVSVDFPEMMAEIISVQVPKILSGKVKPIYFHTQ
Procedure: To confirm the involvement of androgen receptors in hair loss-related gene transcription, recombinant plasmid EGFP-AR (Addgene) was used, and the extent of androgen receptor nuclear translocation in dermal papilla cells was measured using a cellular injection method.
For the untreated group, only DHT was treated, and for the negative control group, neither DHT nor the sample was treated. In the experimental group, DHT and Meloside A or L at 100 ppm were co-treated, and after 24 hours, measurements were taken using a fluorescence microscope at Ex 485 nm and Em 535 nm. The results observed with the fluorescence microscope are shown in FIG. 5, and the number of cells with translocated androgen receptors in the treated groups, based on the untreated group, is shown in FIG. 6.

Androgen Receptor (AR) = experiment: Androgen receptor expression in DHT-treated HDPC (Western blot); assay type: cell-based, human; settings: HDPC pre-treated with 1 μM DHT, 30 or 100 ppm, 1 day, FIGS. 3 and 4
Procedure: Human hair dermal papilla cells (HDPC), used in the test examples described below, were cultured in Dulbecco's Modified Eagle Medium (DMEM, WELGENE) supplemented with 10% Fetal Bovine Serum (FBS, WELGENE) and 1% antibiotics (Penicillin-Streptomycin, WELGENE) as the culture medium, in an incubator at 37° C., 5% CO2, and humid conditions.
Specifically, the following groups were prepared: (i) a negative control group, where neither Dihydrotestosterone (DHT) nor Meloside A and L were treated on human dermal papilla cells (HDPC); (ii) an untreated group, where 1 μM DHT was treated on HDPC, but neither Meloside A nor L was treated; (iii) a positive control group, where 1 μM DHT was treated on HDPC, followed by treatment with 100 μM Minoxidil instead of Meloside A and L; and (iv) a treated group, where HDPC were first treated with 1 μM DHT to activate androgen receptors, and then treated with Meloside A or L at concentrations of 30 or 100 ppm, respectively, for 1 day. After preparation, the HDPC from (i) to (iv) were lysed, and the increase or decrease in the expression level of Androgen Receptor (AR) was confirmed using the Western blot technique. Here, for the analysis of relative expression patterns for each sample, the expression level was normalized based on the expression level of Actin. […]

[2] = test system: dermal papilla cells (HDPC); experiment: Protection against DKK1-induced death of dermal papilla cells (CCK-8); assay type: cell-based, human; settings: 30 or 100 ppm for 1 day, then DKK1, FIG. 10
Procedure: Specifically, HDPC were treated with Meloside A or L at concentrations of 30 or 100 ppm, respectively, for 1 day, and then cell death was induced with DKK1 (dickkopf WNT signaling pathway inhibitor 1). For comparison, HDPC that were neither treated with Meloside A or L nor with DHT were used as the negative control group. HDPC treated with DHT but without Meloside A and L were used as the untreated group. HDPC treated with 100 μM Minoxidil or 5 mM NAC followed by DHT treatment were used as the positive control group.
as §1

| SMILES | cell protective effect against DHT (cell viability) [1] | DKK1 expression level (DKK1) | DHT-induced translocation of androgen receptors (number of cells with translocated AR) (androgen receptor) | androgen receptor (AR) expression level, normalized to Actin (Androgen Receptor (AR)) | cell protective effect against DKK1 (cell viability) [2] |
| --- | --- | --- | --- | --- | --- |
| O=c1cc(-c2ccc(O)cc2)oc2cc(O)c([C@@H]3O[C@H](CO)[C@@H](O)[C@H](O)[C@H]3O[C@@H]3O[C@H](CO)[C@@H](O)[C@H](O)[C@H]3O)c(O)c12 [Meloside A, isovitexin 2″-O-glucoside] | cell protective effect against DHT was confirmed | concentration-dependent decrease in DKK1 expression | inhibited; also recorded: superior to that of Meloside L treatment | concentration-dependent; also recorded: superior effect in decreasing the expression level of androgen receptor (AR) compared to Meloside L | cell protective effect against DKK1 was confirmed |
| O=c1cc(-c2ccc(O)c(O)c2)oc2cc(O)c([C@@H]3O[C@H](CO)[C@@H](O)[C@H](O)[C@H]3O[C@@H]3O[C@H](CO)[C@@H](O)[C@H](O)[C@H]3O)c(O)c12 [Meloside L, isoorientin 2″-O-glucoside] | no cell protective effect against DHT was observed | no effect was observed | inhibited | concentration-dependent | no cell protective effect against DKK1 was observed |
